Experimental data: patent US7138361B2, “Herbicidal heterocycles” (E. I. du Pont de Nemours and Company, priority 2000, dated 2006)

Tests used:
Type in all cases: in vivo
[1] = test system: woolly cupgrass (Eriochloa villosa); assay: Test C preemergence
Method in brief: (§1)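 Pre- and postemergence treatments used a non-phytotoxic solvent/surfactant formulation; post-treated plants measured 2 to 18 cm. Greenhouse hold 12–14 d; % control estimated visually relative to controls.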

[2] = test system: pigweed (Amaranthus retroflexus); assay: Test C preemergence
Method in brief: as §1

[3] = test system: cocklebur (Xanthium strumarium); assay: Test C preemergence
Method in brief: as §1

[4] = test system: soybean (Glycine max); assay: Test C preemergence
Method in brief: as §1

[5] = test system: lambsquarters (Chenopodium album); assay: Test C preemergence
Method in brief: as §1

[6] = test system: Nightshade; assay: Test C preemergence
[7] = test system: common ragweed (Ambrosia elatior); assay: Test C preemergence
Method in brief: as §1

[8] = test system: goosegrass (Eleusine indica); assay: Test C preemergence
Method in brief: as §1

[9] = test system: crabgrass (Digitaria sanguinalis); assay: Test C preemergence
Method in brief: as §1

[10] = test system: Surinam grass (Brachiaria decumbens); assay: Test C preemergence
Method in brief: as §1

[11] = test system: rice (Oryza saliva); assay: Test B preemergence
Method in brief: (§2)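 Greenhouse test: chemicals are formulated in a surfactant-containing non-phytotoxic solvent and applied either preemergence to planted seeds or postemergence to plants 2 to 18 cm tall. Response is rated visually versus controls after 13 to 15 days, 0 meaning no effect and 100 complete control.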

[12] = test system: giant foxtail (Setaria faberii); assay: Test B preemergence
Method in brief: as §2

[13] = test system: velvetleaf (Abutilon theophrasti); assay: Test B preemergence
Method in brief: as §2

[14] = test system: pigweed (Amaranthus retroflexus); assay: Test B preemergence
Method in brief: as §2

[15] = test system: cocklebur (Xanthium strumarium); assay: Test B preemergence
Method in brief: as §2

[16] = test system: morning glory (Ipomoea hederacea); assay: Test B preemergence
Method in brief: as §2

[17] = test system: corn (Zea mays); assay: Test B preemergence
Method in brief: as §2

[18] = test system: lambsquarters (Chenopodium album); assay: Test B preemergence
Method in brief: as §2

[19] = test system: crabgrass (Digitaria sanguinalis); assay: Test B preemergence
Method in brief: as §2

[20] = test system: Surinam grass (Brachiaria decumbens); assay: Test B preemergence
Method in brief: as §2

[21] = test system: barnyardgrass (Echinochloa crus-galli); assay: Test B preemergence
Method in brief: as §2

[22] = Rate 125 g/ha, scale 0 to 100, 0 no effect, 100 complete control
[23] = preemergence, Rate 31 g/ha, scale 0 to 100
[24] = preemergence, Rate 62 g/ha, scale 0 to 100
[25] = preemergence, Rate 250 g/ha, scale 0 to 100, 0 no effect, 100 complete control
[26] = Preemergence, Rate 500 g/ha, scale 0 to 100, 0 no effect, 100 complete control
[27] = preemergence, Rate 125 g/ha, scale of 0 to 100 where 0 is no effect and 100 is complete control, 13 to 15 days
[28] = Rate 62 g/ha, scale 0 to 100, 0 no effect, 100 complete control
[29] = preemergence, Rate 250 g/ha, visual evaluation after 12 to 14 days
[30] = preemergence, Rate 125 g/ha, scale 0 to 100, 0 no effect, 100 complete control

CC(C)OC(=O)c1cccc(N2CCC(n3ccc(C(C)(C)C)n3)C2=O)c1 (stereo not shown) [Compound 124]
Plant response rating, Cupgrass, Woolly [1, 22]: 50
Plant response rating, Cupgrass, Woolly [1, 23]: 0
Plant response rating, Cupgrass, Woolly [1, 24]: 30
Plant response rating, Cupgrass, Woolly [1, 25]: 60
Plant response rating, Pigweed [2, 22]: 0
Plant response rating, Pigweed [2, 23]: 0
Plant response rating, Pigweed [2, 24]: 0
Plant response rating, Pigweed [2, 25]: 50
Plant response rating, Cocklebur [3, 22]: 0
Plant response rating, Cocklebur [3, 23]: 0
Plant response rating, Cocklebur [3, 24]: 0
Plant response rating, Cocklebur [3, 25]: 0
Plant response rating, Soybean [4, 22]: 0
Plant response rating, Soybean [4, 23]: 0
Plant response rating, Soybean [4, 24]: 0
Plant response rating, Soybean [4, 25]: 0
Plant response rating, Lambsquarters [5, 22]: 100
Plant response rating, Lambsquarters [5, 23]: 45
Plant response rating, Lambsquarters [5, 24]: 50
Plant response rating, Lambsquarters [5, 25]: 100
Plant response rating, Nightshade ([6]; Rate 31 g/ha, scale 0 to 100): 0
Plant response rating, Nightshade ([6]; Rate 62 g/ha, scale 0 to 100): 0
Plant response rating, Nightshade ([6]; Rate 125 g/ha; scale 0 to 100, 0 no effect, 100 complete control): 20
Plant response rating, Nightshade ([6]; Rate 250 g/ha, scale 0 to 100, 0 no effect, 100 complete control): 100
Plant response rating, Ragweed, Common [7, 22]: 0
Plant response rating, Ragweed, Common [7, 23]: 0
Plant response rating, Ragweed, Common [7, 24]: 0
Plant response rating, Ragweed, Common [7, 25]: 0
Plant response rating, Goosegrass [8, 22]: 40
Plant response rating, Goosegrass [8, 23]: 0
Plant response rating, Goosegrass [8, 24]: 0
Plant response rating, Goosegrass [8, 25]: 60
Plant response rating, Crabgrass [9, 22]: 100
Plant response rating, Crabgrass [9, 23]: 80
Plant response rating, Crabgrass [9, 24]: 90
Plant response rating, Crabgrass [9, 25]: 100
Plant response rating, Surinam grass [10, 22]: 0
Plant response rating, Surinam grass [10, 23]: 0
Plant response rating, Surinam grass [10, 24]: 0
Plant response rating, Surinam grass [10, 25]: 10
Plant response rating, Rice [11, 26]: 0
Plant response rating, Rice [11, 27]: 0
Plant response rating, Foxtail, Giant [12, 26]: 100
Plant response rating, Foxtail, Giant [12, 27]: 50
Plant response rating, Velvetleaf [13, 26]: 0
Plant response rating, Velvetleaf [13, 27]: 0
Plant response rating, Pigweed [14, 26]: 100
Plant response rating, Pigweed [14, 27]: 80
Plant response rating, Cocklebur [15, 26]: 0
Plant response rating, Cocklebur [15, 27]: 0
Plant response rating, Morningglory [16, 26]: 60
Plant response rating, Morningglory [16, 27]: 0
Plant response rating, Corn [17, 26]: 0
Plant response rating, Corn [17, 27]: 0
Plant response rating, Lambsquarters [18, 26]: 100
Plant response rating, Lambsquarters [18, 27]: 100
Plant response rating, Crabgrass [19, 26]: 100
Plant response rating, Crabgrass [19, 27]: 30
Plant response rating, Surinam grass [20, 26]: 40
Plant response rating, Surinam grass [20, 27]: 0
Plant response rating, Barnyardgrass [21, 26]: 100
Plant response rating, Barnyardgrass [21, 27]: 70

CC(C)(C)c1ccn(C2SCN(c3cccc(OC(F)F)c3)C2=O)n1 (stereo not shown) [Compound 36]
Plant response rating, Cupgrass, Woolly [1, 28]: 60
Plant response rating, Cupgrass, Woolly [1, 23]: 30
Plant response rating (0 to 100), Cupgrass, Woolly [1, 29]: 100
Plant response rating, Cupgrass, Woolly [1, 30]: 100
Plant response rating, Pigweed [2, 28]: 0
Plant response rating, Pigweed [2, 23]: 0
Plant response rating (0 to 100), Pigweed [2, 29]: 100
Plant response rating, Pigweed [2, 30]: 0
Plant response rating, Cocklebur [3, 28]: 30
Plant response rating, Cocklebur [3, 23]: 0
Plant response rating (0 to 100), Cocklebur [3, 29]: 30
Plant response rating, Soybean [4, 28]: 30
Plant response rating, Soybean [4, 23]: 30
Plant response rating (0 to 100), Soybean [4, 29]: 50
Plant response rating, Soybean [4, 30]: 50
Plant response rating, Lambsquarters [5, 28]: 100
Plant response rating, Lambsquarters [5, 23]: 100
Plant response rating (0 to 100), Lambsquarters [5, 29]: 100
Plant response rating, Lambsquarters [5, 30]: 100
Plant response rating, Nightshade ([6]; Rate 31 g/ha, scale 0 to 100): 0
Plant response rating, Nightshade ([6]; Rate 62 g/ha; scale 0 to 100, 0 no effect, 100 complete control): 30
Plant response rating, Nightshade [6, 22]: 50
Plant response rating, Ragweed, Common [7, 28]: 0
Plant response rating, Ragweed, Common [7, 23]: 0
Plant response rating (0 to 100), Ragweed, Common [7, 29]: 50
Plant response rating, Ragweed, Common [7, 30]: 30
Plant response rating, Goosegrass [8, 28]: 100
Plant response rating, Goosegrass [8, 23]: 90
Plant response rating (0 to 100), Goosegrass [8, 29]: 100
Plant response rating, Goosegrass [8, 30]: 100
Plant response rating, Crabgrass [9, 28]: 100
Plant response rating, Crabgrass [9, 23]: 90
Plant response rating (0 to 100), Crabgrass [9, 29]: 100
Plant response rating, Crabgrass [9, 30]: 100
Plant response rating, Surinam grass [10, 28]: 70
Plant response rating, Surinam grass [10, 23]: 20
Plant response rating (0 to 100), Surinam grass [10, 29]: 100
Plant response rating, Surinam grass [10, 30]: 70
Plant response rating, Rice [11, 26]: 90
Plant response rating, Foxtail, Giant [12, 26]: 100
Plant response rating, Foxtail, Giant [12, 30]: 100
Plant response rating, Velvetleaf [13, 26]: 0
Plant response rating, Pigweed [14, 26]: 100
Plant response rating, Cocklebur [15, 26]: 0
Plant response rating, Cocklebur [15, 30]: 0
Plant response rating, Morningglory [16, 26]: 0
Plant response rating, Corn [17, 26]: 0
Plant response rating, Corn [17, 30]: 0
Plant response rating, Lambsquarters [18, 26]: 100
Plant response rating, Lambsquarters [18, 30]: 100
Plant response rating, Crabgrass [19, 26]: 100
Plant response rating, Crabgrass [19, 30]: 100
Plant response rating, Surinam grass [20, 26]: 100
Plant response rating, Surinam grass [20, 30]: 70
Plant response rating, Barnyardgrass [21, 26]: 100
Plant response rating, Barnyardgrass [21, 30]: 100
